These results are taken from patent US11753410B2, “Hormone receptor modulators for treating metabolic mutagenic and fibrotic conditions and disorders” (priority 2017, dated 2023).

Experiment [1] deals with T1, human Farnesoid X receptor ligand-binding domain/Gal4 DNA binding domain chimera (Homo sapiens, UniProt Q96RI1).
T1 construct: host or cells: FXR-UAS-bla HEK 293T (CellSensor UAS-bla HEK 293T)
T1 sequence (Q96RI1 262-486 limits assumed): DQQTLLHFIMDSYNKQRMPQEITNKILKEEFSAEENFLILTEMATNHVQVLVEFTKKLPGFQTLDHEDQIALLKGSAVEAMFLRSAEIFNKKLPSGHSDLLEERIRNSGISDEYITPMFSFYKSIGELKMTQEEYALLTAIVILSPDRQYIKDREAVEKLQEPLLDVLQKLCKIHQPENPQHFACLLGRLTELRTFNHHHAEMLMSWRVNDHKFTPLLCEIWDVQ
The experiment can be described thus: Cell-based assay of FXR activation (FXR-UAS-bla HEK 293T beta-lactamase reporter). The following applies: for Emax: HEK-293T, read-out: Cellular % Efficacy. Here is the method: FXR activation was measured using a cell line and procedure obtained from Life Technologies (Cat #K1691). […] Activation of FXR by bound ligands results in transcriptional activation of the beta-lactamase reporter gene, which is detected via assay of beta-lactamase activity.
Cells are harvested and diluted into assay medium containing phenol red-free DMEM supplemented with 2% Charcoal-stripped FBS, pyruvate, non-essential amino acids. Cells are then transferred to a 384 well assay plate. Test compounds are dissolved in DMSO and a 3-fold serial dilution series is generated, then further diluted into assay medium. Compounds in assay medium are added to cells in the 384 well plate and allowed to incubate 16 h at 37 C in the presence of 5% CO2.
A FRET-based […] (CCF4) is loaded into cells as its acetomethoxy ester. Intracellular esterases liberate free CCF4, a cephalosporin core linking 7-hydroxycoumarin to fluorescein. In the presence of beta-lactamase activity produced in the presence of FXR agonists, cleavage of CCF4 spatially separates the two dyes and disrupts FRET, so that exciting the coumarin at 409 nm now produces a blue fluorescence signal at 447 nm. The change in FRET signal is plotted against the test compound concentration and fit to a 3-parameter logistical equation.

The target of experiment [2] is T2, ligand binding domain of human FXR (Homo sapiens, UniProt Q96RI1).
T2 construct: purchased Thermofisher (LanthaScreen) PV4833
T2 sequence (Q96RI1 262-486 limits assumed): T1 sequence (Q96RI1 262-486 limits assumed)
Kind of experiment: biochemical. The following applies: for Emax: extent of activation relative to GW4064, read-out: Ligand Binding % Efficacy; for EC50: −log EC50, concentration required to produce 50% activation, FRET 520 nm/495 nm, 1 hour at room temperature, read-out: Ligand Binding pEC50 (converted). As to the method: The affinity of FXR ligands for the ligand binding domain of FXR was determined using a commercially available human FXR ligand binding assay (LanthaScreen, Thermofisher Cat #PV4833). […] Binding of FXR ligands to the FXR ligand binding domain promotes binding of the fluorescein-labelled SRC2-2 peptide. This causes a FRET signal between the terbium-labelled anti-GST antibody and the fluorescein-labelled SRC peptide which are both bound to the FXR ligand binding domain.
Test compounds are dissolved in DMSO and a 3-fold serial dilution series is generated, then further diluted into assay buffer. The compounds are mixed with 5 nM GST-tagged FXR ligand binding domain, 5 nM Tb-labelled anti-GST antibody and 500 nM fluorescein-labelled SRC2-2 peptide in a pH7.4 buffer. The reaction is incubated at room temperature for 1 hour, then the FRET signal is measured as the ratio of the 520 nm/495 nm emission following excitation at 340 nm. The change in FRET signal is plotted against the test article concentration and fit to a 3-parameter logistical equation.

`O=C(O)c1cc([C@@H]2CCOC2)c2nc(N3C[C@@H]4C[C@H]3C[C@H]4OCc3c(-c4c(Cl)cccc4Cl)cnn3C3CC3)sc2c1` (single isomer, unassigned) [Compound I-50]: in experiment [1], the EC50 is 0.1 µM and the Emax amounted to 100%. Besides, in experiment [2], the Emax stood at 78% and the EC50 is 0.1 µM.

For `O=C(O)c1cc([C@H]2CCOC2)c2nc(N3C[C@@H]4C[C@H]3C[C@H]4OCc3c(-c4c(Cl)cccc4Cl)cnn3C3CC3)sc2c1` (single isomer, unassigned) [Compound I-51], in experiment [1], the EC50 is 0.158 µM and the Emax is 100%. Moreover, in experiment [2], the Emax was 96% and the EC50 was 0.251 µM.

Consider `O=C(O)c1cc([C@H]2CCOC2)c2nc(N3C[C@@H]4C[C@H]3C[C@H]4OCc3c(C4CC4)nnn3-c3c(Cl)cccc3Cl)sc2c1` (single isomer, unassigned) [Compound I-58], for which the EC50 is 0.001 µM in experiment [1] and 0.002 µM in experiment [2]. The Emax in experiment [1] is 102%; in experiment [2] it was 145%.

As for `O=C(O)c1cc([C@@H]2CCOC2)c2nc(N3C[C@@H]4C[C@H]3C[C@H]4OCc3c(C4CC4)nnn3-c3c(Cl)cccc3Cl)sc2c1` (single isomer, unassigned) [Compound I-59], in experiment [1], the EC50 was 0.00251 µM and the Emax turned out to be 100%. In addition, in experiment [2], the Emax worked out at 137% and the EC50 is 0.00158 µM.

Regarding `O=C(O)c1cc([C@H]2CCOC2)c2nc(N3C[C@@H]4C[C@H]3C[C@H]4OCc3c(-c4c(Cl)cccc4Cl)nnn3C3CC3)sc2c1` (single isomer, unassigned) [Compound I-65], in experiment [1], the EC50 was 0.01 µM and the Emax came to 108%. Moreover, in experiment [2], the Emax is 136% and the EC50 is 0.0251 µM.

Turning to `O=C(O)c1cc([C@@H]2CCOC2)c2nc(N3C[C@@H]4C[C@H]3C[C@H]4OCc3c(-c4c(Cl)cccc4Cl)nnn3C3CC3)sc2c1` (single isomer, unassigned) [Compound I-66], the EC50 in experiment [1] and in experiment [2] was 0.0158 µM each time. In addition, the Emax in experiment [1] was determined as 110%; in experiment [2] it was 140%.

Consider `O=C(O)c1ccc(N2C[C@@H]3C[C@H]2C[C@H]3OCc2c(C3CC3)cnn2-c2c(Cl)cccc2Cl)cc1` [Compound I-1, 4-[(1S,4S,5R)-5-{[4-cyclopropyl-1-(2,6-dichlorophenyl)-1H-pyrazol-5-yl]methoxy}-2-azabicyclo[2.2.1]heptan-2-yl]benzoic acid], for which, in experiment [1], the EC50 was 0.00158 µM and the Emax turned out to be 110%. Further, in experiment [2], the Emax came out at 121% and the EC50 was 0.00631 µM.

As to `O=C(O)c1ccc(N2C[C@@H]3C[C@H]2C[C@H]3OCc2c(C3CC3)cnn2-c2c(Cl)cccc2Cl)cc1F` [Compound I-2, 4-[(1S,4S,5R)-5-{[4-cyclopropyl-1-(2,6-dichlorophenyl)-1H-pyrazol-5-yl]methoxy}-2-azabicyclo[2.2.1]heptan-2-yl]-2-fluorobenzoic acid], in experiment [1], the EC50 is 0.002 µM and the Emax worked out at 104%. In experiment [2], the Emax stood at 133% and the EC50 is 0.00501 µM.

As for `O=C(O)c1ccc(N2C[C@@H]3C[C@H]2C[C@H]3OCc2c(C3CC3)cnn2-c2c(F)cccc2F)cc1F` [Compound I-10, 4-[(1S,4S,5R)-5-{[4-cyclopropyl-1-(2,6-difluorophenyl)-1H-pyrazol-5-yl]methoxy}-2-azabicyclo[2.2.1]heptan-2-yl]-2-fluorobenzoic acid], in experiment [1], the EC50 is 0.0316 µM and the Emax came out at 118%. In addition, in experiment [2], the Emax is 164% and the EC50 was 0.158 µM.

As to `C[C@@H]1[C@@H]2C[C@@H](C[C@H]2OCc2c(C3CC3)cnn2-c2c(Cl)cccc2Cl)N1c1ccc(C(=O)NS(=O)(=O)C2CCOCC2)c(F)c1` [Compound I-28, 4-((1S,3R,4S,5R)-5-((4-cyclopropyl-1-(2,6-dichlorophenyl)-1H-pyrazol-5-yl)methoxy)-3-methyl-2-azabicyclo[2.2.1]heptan-2-yl)-2-fluoro-N-((tetrahydro-2H-pyran-4-yl)sulfonyl)benzamide], in experiment [2], the Emax was 56% and the EC50 is 0.398 µM.

In the case of `C[C@@H]1[C@@H]2C[C@@H](C[C@H]2OCc2c(C3CC3)cnn2-c2c(Cl)cccc2Cl)N1c1ccc(C(=O)NS(=O)(=O)C2CC2)c(F)c1` [Compound I-29, N-(cyclopropanesulfonyl)-4-[(1S,3R,4S,5R)-5-{[4-cyclopropyl-1-(2,6-dichlorophenyl)-1H-pyrazol-5-yl]methoxy}-3-methyl-2-azabicyclo[2.2.1]heptan-2-yl]-2-fluorobenzamide], in experiment [2], the Emax is 59% and the EC50 was 0.2 µM.

In the case of `O=C(O)CCc1ccc(N2C[C@@H]3C[C@H]2C[C@H]3OCc2c(C3CC3)cnn2-c2c(F)cccc2F)c(F)c1` [Compound I-35, 3-{4-[(1S,4S,5R)-5-{[4-cyclopropyl-1-(2,6-difluorophenyl)-1H-pyrazol-5-yl]methoxy}-2-azabicyclo[2.2.1]heptan-2-yl]-3-fluorophenyl}propanoic acid], in experiment [2], the Emax came to 152% and the EC50 was 0.631 µM.

As for `Cc1cccc(C)c1-n1ncc(C2CC2)c1CO[C@@H]1C[C@@H]2C[C@H]1CN2c1ccc(CCC(=O)O)cc1F` [Compound I-36, 3-{4-[(1S,4S,5R)-5-{[4-cyclopropyl-1-(2,6-dimethylphenyl)-1H-pyrazol-5-yl]methoxy}-2-azabicyclo[2.2.1]heptan-2-yl]-3-fluorophenyl}propanoic acid], in experiment [2], the Emax stood at 134% and the EC50 was 0.158 µM.

On to `Cc1cccc(Cl)c1-n1ncc(C2CC2)c1CO[C@@H]1C[C@@H]2C[C@H]1CN2c1ccc(CCC(=O)O)cc1F` [Compound I-37, 3-{4-[(1S,4S,5R)-5-{[1-(2-chloro-6-methylphenyl)-4-cyclopropyl-1H-pyrazol-5-yl]methoxy}-2-azabicyclo[2.2.1]heptan-2-yl]-3-fluorophenyl}propanoic acid], for which, in experiment [2], the Emax was found to be 176% and the EC50 is 0.0398 µM.

Take `O=C(O)CCc1ccc(N2C[C@@H]3C[C@H]2C[C@H]3OCc2c(C3CC3)cnn2-c2c(F)cccc2Cl)c(F)c1` [Compound I-38, 3-{4-[(1S,4S,5R)-5-{[1-(2-chloro-6-fluorophenyl)-4-cyclopropyl-1H-pyrazol-5-yl]methoxy}-2-azabicyclo[2.2.1]heptan-2-yl]-3-fluorophenyl}propanoic acid]: in experiment [2], the Emax was 185% and the EC50 is 0.158 µM.

Take `O=C(O)CCc1ccc(N2C(=O)[C@@H]3C[C@H]2C[C@H]3OCc2c(C3CC3)cnn2-c2c(Cl)cccc2Cl)c(F)c1` [Compound I-39, 3-{4-[(1S,4R,5R)-5-{[4-cyclopropyl-1-(2,6-dichlorophenyl)-1H-pyrazol-5-yl]methoxy}-3-oxo-2-azabicyclo[2.2.1]heptan-2-yl]-3-fluorophenyl}propanoic acid]: the Emax in experiment [2] is 136%.

On to `O=C(O)C1CC(c2ccc(N3C[C@@H]4C[C@H]3C[C@H]4OCc3c(C4CC4)cnn3-c3c(Cl)cccc3Cl)c(F)c2)C1` (stereo partly drawn) [Compound I-40, 3-{4-[(1S,4S,5R)-5-{[4-cyclopropyl-1-(2,6-dichlorophenyl)-1H-pyrazol-5-yl]methoxy}-2-azabicyclo[2.2.1]heptan-2-yl]-3-fluorophenyl}cyclobutane-1-carboxylic acid], for which, in experiment [2], the Emax was 156% and the EC50 is 0.0316 µM.
